Data set [1] is described as follows: Short-term (seven day) in vivo toxicity in mice. Further details: species or system C57BL/6 mice. The conditions noted are these: 20 mg/kg i.p. daily for seven days. As to the method:
All animal experiments were performed according to protocols and guidelines approved by the Emory University Animal Care and Use Committee. The in vivo toxicity of TG15-132 was assessed using C57BL/6 mice (cat. no. 027, Charles River Laboratories, Wilmington, MA, USA). Animals were injected daily (i.p.) with saline, vehicle (DMSO 10%, PEG400 30%, water 60%), or 20 mg/kg of TG15-132 in vehicle for seven days, with body weight recorded each day. At the end of treatment, organs were harvested to study organ weight loss, and blood was collected from each mouse via cardiac puncture, and serum was isolated. Serum was analyzed for kidney function using blood urea nitrogen and creatinine, liver function using alanine amino transferase, and tissue damage using lactate dehydrogenase.

The target of another data set is T1, Nox2 (Homo sapiens, UniProt P04839).
T1 construct: endogenous in cells
T1 sequence (P04839 2-570 limits assumed): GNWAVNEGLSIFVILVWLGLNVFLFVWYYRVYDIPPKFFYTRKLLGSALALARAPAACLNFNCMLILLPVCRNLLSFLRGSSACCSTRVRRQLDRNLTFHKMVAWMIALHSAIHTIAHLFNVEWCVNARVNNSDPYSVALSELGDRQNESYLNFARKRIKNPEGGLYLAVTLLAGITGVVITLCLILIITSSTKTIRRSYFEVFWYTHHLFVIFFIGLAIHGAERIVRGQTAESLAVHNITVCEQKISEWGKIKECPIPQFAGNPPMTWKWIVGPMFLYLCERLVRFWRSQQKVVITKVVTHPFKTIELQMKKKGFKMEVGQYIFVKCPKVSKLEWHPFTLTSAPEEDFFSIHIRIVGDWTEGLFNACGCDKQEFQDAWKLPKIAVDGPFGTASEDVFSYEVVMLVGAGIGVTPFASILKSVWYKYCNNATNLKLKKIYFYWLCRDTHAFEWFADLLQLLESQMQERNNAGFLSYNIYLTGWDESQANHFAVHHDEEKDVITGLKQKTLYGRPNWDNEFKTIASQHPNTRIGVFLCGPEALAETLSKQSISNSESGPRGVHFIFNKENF
T1 sequence (P13498 2-195 partner limits assumed): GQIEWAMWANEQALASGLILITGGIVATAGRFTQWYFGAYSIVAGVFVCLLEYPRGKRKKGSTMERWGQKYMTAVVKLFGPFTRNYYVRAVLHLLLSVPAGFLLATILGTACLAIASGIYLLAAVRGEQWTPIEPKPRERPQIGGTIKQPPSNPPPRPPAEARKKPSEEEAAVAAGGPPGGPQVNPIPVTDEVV
Put plainly: CBA probe assay of H2O2 production by PMA-activated dHL60 cells. The data set is classed as cell-based. The conditions noted are these: PMA (1 µM)-activated dHL60 cells, 30 min preincubation with inhibitor; read-out: IC50, inhibition of H2O2 production, CBA Assay. As to the method:
Human promyelocytic leukemia HL60 cells (Sigma-Aldrich) were grown in RPMI 1640 medium (Gibco, 11875-093, Billings, MT, USA) supplemented with 10% FBS (Omega Scientific (Tarzana, CA, USA)), 100 units/mL penicillin, and 100 µg/mL streptomycin, and were incubated at 37 °C and 5% carbon dioxide (CO2). For differentiation to neutrophil-like cells, HL60 cells were pelleted and resuspended in fresh media containing 1 µM of all trans-retinoic acid and incubated for four to five days. Nox2 activation was achieved by treating differentiated HL60 (dHL60) cells with 1 µM PMA [24]. Human leukemia monocytic cells, THP-1, were grown in RPMI 1640 medium + GlutaMAX^TM (Gibco, 61870-036) and supplemented with 10% FBS, 10 mM HEPES, and 1 mM sodium pyruvate and incubated at 37 °C in 5% CO2 environment. To induce differentiation into macrophages, THP-1 cells were treated with PMA (100 ng/mL) for 48 h. To test the efficacy of Nox2 inhibitors, treatment was performed with or without the inhibitor, along with PMA [35].
Plate reader-based analyses of the production of O2^•− and H2O2 by PMA-activated dHL60 cells were performed according to a published protocol with minor modifications. Briefly, for the treatment of dHL60 cells with different concentrations of the compounds, 0.5 mL deep-well 96-well plates were used to dispense and store aliquots of their 10 mM DMSO solutions. Using a Multidrop™ PicoIT dispenser (Thermo Scientific), different volumes of the solutions of candidate Nox inhibitors (10 or 50 mM in DMSO) were injected into the bottom of 0.5 mL V-bottom 96-well plates; then, they were sealed with aluminum foil (VWR, Batavia, IL, USA) using a semiautomatic thermal sealer (BT LabSystems, St. Louis, MO, USA) and stored at −20 °C to reduce freeze-thawing the solutions. The plates with inhibitors were allowed to come to room temperature before the addition of the cell suspensions. dHL60 cells were pelleted and resuspended in HBSS (Invitrogen, Waltham, MA, USA) supplemented with 25 mM HEPES (pH 7.4) and 100 µM DTPA to a cell density of 2 × 10^5 cells/mL. dHL60 cells were added to the V-bottom plates at a volume of 210 µL/well. Next, cells were incubated with inhibitors for 30 min at 37 °C in a CO2-free incubator under ambient oxygen and then transferred to black, clear-bottom 96-well plates (200 µL/well) after incubation. Freshly prepared PMA plus probe solutions in HBSS (5× concentrated, 50 µL/well) included PMA (5 µM) with CBA (500 µM) or with Amplex Red (250 µM) plus HRP (0.5 U/mL) for H2O2 detection, or with HE (50 µM) plus DNA (0.5 mg/mL) for O2^•− detection. Once probes + PMA were added, plates were sealed with sealing film and immediately placed in the pre-warmed plate readers (37 °C). Fluorescence intensities were monitored kinetically from the bottom of the plates every 1.3 min for a period of 2 h using Beckman Coulter (Brea, CA, USA) DTX880 and BMG Labtech (Ortenberg, Germany) FLUOstar Omega plate readers. DMSO alone and DPI (10 µM) were used as negative and positive controls, respectively. […] The IC50 values were determined using at least five independent measurements, each consisting of technical quadruplicates per concentration.

The next data set concerns dHL60 cells. Put plainly: Cell Titer Glo 2.0 cytotoxicity (ATP) assay in PMA-stimulated dHL60 cells. The data set is classed as cell-based, human. As to the method: The cytotoxicity of the inhibitors was tested by measuring the amount of ATP in the wells containing PMA-stimulated dHL60 cells and the candidate inhibitors. Cells were prepared as described for the plate reader-based measurements for H2O2, except that the cells were maintained with the inhibitors in a CO2-free incubator at 37 °C for 2.5 h to mirror the conditions during the fluorescence-based monitoring of H2O2 described above. After incubation, cells (100 µL/well) were transferred to white 96-well plates (Greiner, Kremsmünster, Austria), and the total cellular ATP amount was determined using the Cell Titer Glo 2.0 (Promega) cytotoxicity assay (100 µL/well) by measuring the luminescence intensity using a Beckman Coulter DTX880 plate reader.

Each structure is given as a SMILES string.

This note sets out measurements from publication PMC10525516, “Novel NADPH Oxidase-2 Inhibitors as Potential Anti-Inflammatory and Neuroprotective Agents” (Antioxidants, 2023).

Regarding `CN(C)CCCn1c(SCCc2c[nH]c3ccccc23)nc2ccc(F)cc2c1=O` [TG15-132], in data set [1], the “blood urea nitrogen compared with saline-treated mice” value is “significant drop” and the “weights of the lung, liver, or brain” value is listed as “no changes”. Further, in data set [1] (marginal and nonsignificant), the “loss of body weight” value amounted to 7%. In addition, in data set [1] (n = 6), the “serum injury markers (BUN, creatinine, ALT, LDH) vs vehicle” value is “no differences”. The IC50 on Nox2 came out at 4.3 ± 1.3 µM. Besides, the IC50 in the data set with dHL60 cells (Homo sapiens, Cell Titer Glo 2.0, PMA-stimulated dHL60 cells, 2.5 h with inhibitor, unit not printed in Table 3, taken from text, read-out: IC50, Viability Assay) was determined as 34.5 ± 6 µM. Further, in the data set on dHL60 cells (dHL60 cells, Figure 3D,E), the “cell viability at concentrations showing Nox2 inhibitory potency” value is “no decrease in cell viability”.
